Assay results as given in PubChem BioAssay AID1159557 (GlaxoSmithKline (GSK), 2015).
Calls of active or inactive are those of the source. How the calls were made is not given here.

What follows are compounds tested on Trypanosoma brucei growth inhibition (assay: trypanosome proliferation inhibitors (AID 1159557);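 further: parasites exposed to compound for 48 h before the resazurin readout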).

SMILES | IC50
Cc1[nH]n2c(=O)c3c(nc2c1-c1ccc(Cl)cc1)CCCC3 | 0.16 µM
CCCCCNC(=O)c1c[nH]c2ccc(S(=O)(=O)N(C)c3ccc(OCC)cc3)cc2c1=O | 0.32 µM
COc1ccc2c(Cl)c(C(=O)N3CCC3)sc2c1Cl | 20 µM
C[C@@H](Oc1cc(-n2cnc3ccc(O[C@H]4CCNC4)cc32)sc1C(N)=O)c1ccccc1Cl | 0.25 µM
Cc1cccc(NS(=O)(=O)c2cnc3sc(C)cn3c2=O)c1 | > 40 µM (inactive)
Fc1ccc(OC2CC(NCc3cccc4cn[nH]c34)C2)cc1C(F)(F)F (configuration not stated) | 7.9 µM
COc1ccc(C2C3CCCCC3(O)CCN2CC(=O)Nc2ccc(Cl)cc2Cl)cc1 (configuration not stated) | 7.9 µM
Cc1cc(Nc2cc(C3CC3)[nH]n2)nc(N2CCCC2)n1 | 0.05 µM
CS(=O)(=O)c1cccc(CNC(=O)c2cncc(N3CCN(c4ccc(F)cc4)CC3)c2)c1 | 32 µM
CC(C)(C)c1cc(NC2CC2)nc(-c2ccccn2)n1 | 7.9 µM
Cc1[nH]c2ccccc2c(=O)c1Cc1c(C)[nH]c2ccccc2c1=O | > 40 µM (inactive)
Cc1cccc(Nc2nc(-c3ccccn3)cs2)n1 | 1 µM
Cc1nn(-c2nc(N)nc(-c3ccccn3)n2)c(C)c1Cc1ccccc1 | > 40 µM (inactive)
Cn1nc([N+](=O)[O-])nc1N1CCCCC1 | > 40 µM (inactive)
COc1ccc(C(=O)Nc2cc(C(F)(F)F)ccc2N2CCOCC2)c(OC)c1 | 10 µM
CC(C(=O)Nc1ccc(Br)cc1)N1CCN(c2ccc([N+](=O)[O-])cc2)CC1 (configuration not stated) | > 40 µM (inactive)
CCN(CC)S(=O)(=O)c1ccc(Cn2nc(C(=O)Nc3ccncn3)c3ccccc32)cc1 | 32 µM
COc1ccc(NS(=O)(=O)c2cccc(NC(=O)c3cc(F)cc(F)c3)c2)cc1 | 0.63 µM
CC(C)Oc1cccc(N2CCC(C(=O)N3CCCN(C(C)C)CC3)CC2)c1 | > 40 µM (inactive)
O=S(=O)(NCC(c1cccnc1)N1CCN(c2ccccc2F)CC1)c1ccc(F)cc1 (configuration not stated) | 25 µM
O=C(Nc1cccc(Cl)c1)N1CCCCC1c1cccnc1 (configuration not stated) | > 40 µM (inactive)
CC(C)(C)C(O)(CCc1ccc(Cl)cc1)Cn1cncn1 (configuration not stated) | > 40 µM (inactive)
O=c1[nH]cnc2c([C@@H]3O[C@H](CO)[C@@H](O)[C@H]3O)[nH]nc12 | 0.0032 µM
CCC(CC)C(=O)Nc1cccc(C(=O)Nc2nnc(C3CCCCC3)s2)c1 | 0.25 µM
Cc1c(C#N)c([N+](=O)[O-])nn1Cc1cccc(Cl)c1Cl | 16 µM

SMILES | IC50
O=S(=O)(c1ccccc1C(F)(F)F)N1CCN(Cc2ccc(-n3ccnc3)cc2)CC1 | > 40 µM (inactive)
O=C(NC1CCN(C2Cc3ccc(NS(=O)(=O)c4cc(F)cc(F)c4)cc3C2)CC1)C1CC1 (configuration not stated) | 1 µM
Cc1ccc(C)c(OC2CCN(C(=O)C(C)n3ccnc3)CC2)c1 (configuration not stated) | > 40 µM (inactive)
Clc1ccc(OCCN2CCCCC2c2cccnc2)c(Cl)c1 (configuration not stated) | 32 µM
N#Cc1ccc(S(=O)(=O)N2CCN(Cc3cccc(-c4ccncc4)c3)CC2)cc1 | > 40 µM (inactive)
Cc1cc(N(C)C)nc(Nc2ccccc2C)n1 | 32 µM
CN1CCCN(C(=O)c2ccc(N3CCCC3)cc2Cl)CC1 | > 40 µM (inactive)
CN1CCC(N(C)c2nccc(N3CCN(C(=O)c4cccc(-c5cccnc5)c4)CC3)n2)CC1 | 0.79 µM
CC(C)(C)C(=O)Nc1cc(C2CC2)nn1-c1nc2c(c(=O)[nH]1)CCCC2 | 0.16 µM
O=C(NNC(=O)c1ccccn1)c1ccc(-c2ccccc2)cc1 | 0.32 µM
CC(=O)Nc1ccc(Nc2nccc(-c3cnn4ncccc34)n2)cc1C(F)(F)F | 0.032 µM
COc1ncc(-c2ccc3ncnc(N4CCOCC4)c3c2)cc1NS(C)(=O)=O | 0.32 µM
Nc1nccc(-c2csc(Nc3ccc(Cl)cc3)n2)n1 | > 40 µM (inactive)
O=C(Nc1ncc([N+](=O)[O-])s1)C1CC1 | 7.9 µM
Fc1ccccc1N1C[C@H]2CCN(c3cccnc3)C[C@H]2C1 | 32 µM
CC(C)S(=O)(=O)c1ccc(-c2cnc(N)c3cc(-c4ccnc(N)n4)ccc23)cc1 | 0.2 µM
COCc1cnc2c(c1SCc1c(F)cccc1Cl)c(=O)n(C)c(=O)n2C | 4 µM
Nc1nonc1-c1nc2cncc(C(=O)N3CC[C@H](N)C3)c2n1CC1CC1 | 0.63 µM
O=C(Cc1ccccc1)Nc1[nH]nc2sc(C(=O)NC3CCCC3)cc12 | 0.4 µM
O=C(NCc1ccc(-n2cccc2)cc1)c1nc(Cn2ccc([N+](=O)[O-])n2)no1 | > 40 µM (inactive)
COc1ccc2ncc(Cl)c(CCN3CC[C@H](NCc4cc5c(cn4)OCS5)[C@@H](O)C3)c2n1 | 0.32 µM
CC(Cn1ccnc1)NC(=O)C=Cc1ccc(Cl)cc1 (configuration not stated) | > 40 µM (inactive)
O=C(NCC1CCCCN1C(=O)c1cccc2ccccc12)c1ccccc1 (configuration not stated) | 0.4 µM
CC(C)c1cc(Nc2cc(Cc3ccccc3)nc(NC3CCC(O)CC3)n2)n[nH]1 (configuration not stated) | 0.079 µM
CC(=O)Nc1nc(-c2cc(C)ccc2C)c(C)s1 | > 40 µM (inactive)

SMILES | IC50
CN(C(=O)Nc1ccc2c(c1)CCN(C1CCC1)CC2)c1ccc(C#N)cc1 | 0.2 µM
CCCCN(C(=O)c1ccc(NC(=O)C(C)C)cc1)c1ccccc1 | 16 µM
NC(=O)c1ncccc1Nc1nc(NC2CCC(O)CC2)ncc1Br (configuration not stated) | 0.32 µM
CCCCn1nnnc1CSc1nc(C)cc(C)c1C#N | > 40 µM (inactive)
COc1ccc2nccc([C@H](O)CN3CC[C@H](NC(=O)c4ccc(Br)cc4)[C@@H](O)C3)c2n1 | 0.2 µM
NCC(Cc1ccccc1)NC(=O)c1cnc(-c2c[nH]c3ncccc23)s1 (configuration not stated) | 0.4 µM
COc1ccc(S(=O)(=O)Nc2ccccc2OC)cc1NC(=O)CCCc1c[nH]c2ccccc12 | 13 µM
Cc1ccc(C)c(-n2nnnc2Sc2nc([N+](=O)[O-])nn2C)c1 | 13 µM
Clc1ccc(Sc2cnccc2N2CCOCC2)cc1 | 25 µM
CCCc1cc(N)nc(-c2cc(CCC)cc(N)n2)c1 | 3.2 µM
N#Cc1ccc(C(=O)Nc2cccc(-c3cccc(CN4CCC(O)CC4)c3)c2)cc1 | 0.79 µM
CC(C(=O)Nc1ccccc1F)N(C)CC(=O)Nc1cccc2ccccc12 (configuration not stated) | 25 µM
O=c1ccc2ccc(F)c3c2n1C[C@H]3CN1CCC(NCc2cc3ccccc3o2)CC1 | 0.63 µM
CC(c1cc(Cl)cc(Cl)c1)N(C)c1ncc2c(N)nc(N)nc2n1 (configuration not stated) | > 40 µM (inactive)
OC[C@@H](Nc1nccc(-c2c(-c3ccc(F)cc3)ncn2C2CCNCC2)n1)c1ccccc1 | 0.4 µM
COc1ccc(C(=O)N2CCC(Nc3cccnc3)C2)c(OC)n1 (configuration not stated) | > 40 µM (inactive)
Cc1cc(C)cc(NS(=O)(=O)c2cc(-c3cc(C)[nH]n3)ccc2C)c1 | 1 µM
Cn1c(CN2CCN(c3ncc(C(F)(F)F)cc3Cl)CC2)nc2ccncc21 | 6.3 µM
N#Cc1ccc(Br)cc1[N+](=O)[O-] | 0.16 µM
COCCn1c(-c2ccccc2)cnc1NCc1ccccc1OC | 25 µM
CCOc1ccc(N(C)S(=O)(=O)c2ccc3[nH]cc(C(=O)NC4CCCC4)c(=O)c3c2)cc1 | 0.25 µM
Cc1cc(Nc2cc(C3CC3)[nH]n2)nc(N2CCC[C@H]2C(N)=O)n1 | 0.013 µM
CC(C)C[C@H](NC(=O)c1csc(-c2cccs2)n1)C(=O)NC1(C#N)CC1 | 0.16 µM

Now from value to compound:

IC50 | SMILES
32 µM | CNc1c(C(N)=O)c(-c2ccc3scnc3c2)nn1CC(F)(F)F
0.16 µM | O=C(N[C@H](CO)c1ccccc1)c1ccc(-c2c[nH]c3nccc(C(F)(F)F)c23)s1
25 µM | CCC1Oc2cc(S(=O)(=O)N(C)CC(=O)N3CCc4ccccc4C3)c(C)cc2NC1=O (configuration not stated)
32 µM | Cc1nn(-c2ccccc2)nc1CNC(=O)CN(Cc1ccccn1)Cc1ccccn1
> 40 µM (inactive) | O=C(CSc1nnc(-c2ccc3c(c2)OCO3)o1)N(Cc1ccco1)CC(F)(F)F
> 40 µM (inactive) | Cc1nc(C(=O)Nc2ccc3c(c2)OCO3)nn1-c1ccc(Cl)cc1
7.9 µM | CCCn1c(NC(=O)CCn2cc(Br)cn2)nc2ccccc21
> 40 µM (inactive) | CCC(c1ccc(F)cc1)n1cncc1-c1cnn(C)c1 (configuration not stated)
0.63 µM | CC(C)(C)C(=O)NCCc1csc(-c2ccc(F)cc2)n1
> 40 µM (inactive) | Cc1nn(C)c(Cl)c1CN(Cc1cccnc1)Cc1ccsc1
0.5 µM | O=C(NCCc1csc(-c2cccc(F)c2)n1)c1ccco1
13 µM | O=C(NCCc1ccccn1)C(c1cn[nH]c1)N1CCN(c2ccc(Cl)c(Cl)c2)CC1 (configuration not stated)
10 µM | Cc1cccnc1CN1CCN(CCCOc2ccc(-c3ccc(C(N)=O)cc3)cc2)CC1
> 40 µM (inactive) | CCN(Cc1ccncc1)Cc1ccc(NC(=O)c2cc(-c3ccc(F)cc3)n[nH]2)cc1
2.5 µM | COc1ccccc1CNc1cc(C2CC2)nc(-c2nccn2C)n1
16 µM | COc1ccccc1C1CC(c2ccc(NS(C)(=O)=O)cc2)=NN1C(=O)c1cccs1 (configuration not stated)
32 µM | CCn1nccc1CN(C)C(=O)C=Cc1ccc(Cl)cc1

IC50 | SMILES
1.3 µM | CCOc1ccc2nc(NC(=O)c3ccc([N+](=O)[O-])s3)sc2c1
3.2 µM | COc1ccc2ncc(=O)n(CCN3CCC(NCc4ccc(-c5cccs5)cc4)CC3)c2n1
0.32 µM | O=[N+]([O-])c1ccc(-c2nnn(-c3ccc(Cl)cc3)n2)o1
0.5 µM | CN(C)S(=O)(=O)c1ccc(Cl)c(C(=O)Nc2nc(-c3ccccn3)cs2)c1
5 µM | Cc1c(CNC(=O)c2ccc(Cn3cc(Cl)c([N+](=O)[O-])n3)cc2)cnn1C
5 µM | CN(C)CCN(C)Cc1ccc(F)cc1NS(=O)(=O)c1ccc(Cl)c(Cl)c1
20 µM | O=C(Cc1ccc2c(c1)CCC2)Nc1n[nH]c(-c2ccccn2)n1
20 µM | Cc1c(C(=O)NCCCCn2ccnc2)oc2c(C)cccc12
0.04 µM | NC(N)=Nc1nc(-c2ccc(NC(N)=NCCN3CCCC3)cc2)cs1
13 µM | Cn1nccc1-c1cc(OC(CN)c2ccccc2)cnc1-c1ccco1 (configuration not stated)
3.2 µM | CCn1c(NC(=O)Cc2ccc(F)cc2)nc2ccccc21
0.1 µM | CCN(CC)c1ncc(C(=O)c2ccc([N+](=O)[O-])o2)s1
32 µM | CN(C)S(=O)(=O)c1cccc(CSc2nnc(-c3ccc4c(c3)OCO4)o2)c1
25 µM | CCN(Cc1cccs1)C(=O)CSc1nnc(-c2ccc3c(c2)OCO3)o1
32 µM | O=S(=O)(c1cccc(CSc2nnc(-c3ccc4c(c3)OCO4)o2)c1)N1CCOCC1
0.4 µM | C[C@@H](Oc1cc(-n2cnc3ccc(C(O)CO)cc32)sc1C(N)=O)c1ccccc1C(F)(F)F (some centres not stated)
0.5 µM | CCCNC(=O)Nc1cccc(-c2nc3ncccc3o2)c1
